Here are results for four molecules from paper PMC7562955 (Nature Communications, 2020).

For this test, the target named is T1, human TLR9 (Homo sapiens, UniProt Q9NR96).
T1 construct: host or cells: HEK293 (TLR9/NF-κB/SEAPorter)
T1 sequence (Q9NR96 26-1032): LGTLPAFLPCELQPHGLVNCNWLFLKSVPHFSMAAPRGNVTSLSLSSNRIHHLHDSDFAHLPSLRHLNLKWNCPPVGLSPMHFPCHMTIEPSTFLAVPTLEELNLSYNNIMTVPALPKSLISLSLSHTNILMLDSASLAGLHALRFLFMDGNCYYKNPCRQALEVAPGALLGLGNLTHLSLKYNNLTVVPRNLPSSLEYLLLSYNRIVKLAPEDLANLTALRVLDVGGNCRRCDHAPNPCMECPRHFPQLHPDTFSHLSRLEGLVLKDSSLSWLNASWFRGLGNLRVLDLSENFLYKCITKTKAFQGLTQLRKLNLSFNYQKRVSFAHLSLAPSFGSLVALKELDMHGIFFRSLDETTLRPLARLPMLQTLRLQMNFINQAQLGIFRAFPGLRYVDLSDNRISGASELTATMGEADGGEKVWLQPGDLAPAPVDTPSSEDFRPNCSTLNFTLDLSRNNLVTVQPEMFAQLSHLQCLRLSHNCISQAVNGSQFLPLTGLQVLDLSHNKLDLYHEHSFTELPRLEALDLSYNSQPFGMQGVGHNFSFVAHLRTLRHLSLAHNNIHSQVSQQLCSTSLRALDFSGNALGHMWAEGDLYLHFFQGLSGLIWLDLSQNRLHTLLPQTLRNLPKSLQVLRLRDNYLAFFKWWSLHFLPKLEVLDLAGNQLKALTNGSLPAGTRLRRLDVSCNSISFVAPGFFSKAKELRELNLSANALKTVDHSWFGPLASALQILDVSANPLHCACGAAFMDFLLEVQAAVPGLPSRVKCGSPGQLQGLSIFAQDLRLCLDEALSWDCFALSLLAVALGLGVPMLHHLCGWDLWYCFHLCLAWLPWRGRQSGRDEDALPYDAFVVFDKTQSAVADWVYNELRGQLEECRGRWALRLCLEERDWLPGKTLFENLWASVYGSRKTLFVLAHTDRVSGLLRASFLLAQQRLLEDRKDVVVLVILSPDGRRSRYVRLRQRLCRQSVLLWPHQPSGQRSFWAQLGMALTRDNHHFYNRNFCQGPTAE
Nature of the test: Human TLR9 reporter gene inhibitory activity assay (NF-κB/SEAP HEK293). The format is cell-based. Conditions: for human TLR9 activity, reporter signal: CpG2006 500 nM. The method, then: Compounds were dissolved in dimethyl sulfoxide. Before stimulation with compound, Human TLR7 reporter cell line (TLR7/NF-κB/SEAPorter^TM HEK293 cell, Novus Biological, USA), human TLR8 reporter cell line (TLR8/NF-κB/SEAPorter^TM HEK293 cell, Novus Biological), and human TLR9 reporter cell line (TLR9/NF-κB/SEAPorter^TM HEK293 cell, Novus Biological) were seeded in 96-well microtiter plate (AGC techno glass, Japan) at 5 × 10^4 cells/well in DMEM (GIBCO, United Kingdam) with 10 % fetal bovine serum (GIBCO), and 10 ug/ml Blastcidin S HCl (GIBCO) and incubated at 37 °C in 5% CO2. The plates were incubated over-night and then stimulated with various concentrations of compound. […] After 30 min, R848 (human TLR7/8 ligand, synthesized at Sumitomo Dainippon Pharma, Japan) or CpG2006 (human TLR9 ligand, Hokkaido System Science Co., Ltd., Japan) added to each well, wherein each final concentration were adjusted to 200 nM R848 (human TLR7), 30 μM R848 (human TLR8), or 500 nM CpG2006 (human TLR9). The plates were then incubated an additional 20 ± 1 h at 37 °C in 5% CO2 and then the secreted embryonic alkaline phosphatase (SEAP) activity was measured as activation of human TLR7, 8, and 9. The SEAP activity was evaluated as follows: pNPP (Invitrogen, USA) was added to the incubated sample (50 μl/well); after 15 min, 4 M sodium hydroxide solution (nacalai tesque, Japan) was added thereto (50 μl/well) to quench the reaction; and the absorbance of each sample was measured at 405 nm with microplate reader SpectraMax M4 (Molecular Devices, USA).
(In general: A reporter such as luciferase makes a cellular process visible.)

Consider `CCCCOc1nc(N)c2nc(-c3cccnc3)n(Cc3ccccc3)c2n1` [Cpd-5], for which the “inhibition of TLR9” value is recorded as “without causing any inhibition”. In addition, where the note is “compound 0.0001 nM (as headed)”, the “human TLR9 activity, reporter signal” value turned out to be 0.3823. For the same molecule, the “human TLR9 activity, reporter signal” value (compound 0.001 nM (as headed)) is 0.4021. Further, the “human TLR9 activity, reporter signal” value (compound 0.003 nM (as headed)) was found to be 0.4541. Besides, the “human TLR9 activity, reporter signal” value (compound 0.01 nM (as headed)) came to 0.4157. Where the note is “compound 0.03 nM (as headed)”, the “human TLR9 activity, reporter signal” value is listed as 0.4224. Besides, the “human TLR9 activity, reporter signal” value (compound 0.1 nM (as headed)) is 0.4068. Also, for the setting “compound 0.3 nM (as headed)”, the “human TLR9 activity, reporter signal” value was 0.4193. Besides, the “human TLR9 activity, reporter signal” value (compound 1 nM (as headed)) is recorded as 0.3613. For the same molecule, for the setting “compound 3 nM (as headed)”, the “human TLR9 activity, reporter signal” value was 0.3381. Moreover, the “human TLR9 activity, reporter signal” value (compound 10 nM (as headed)) turned out to be 0.3129. The “human TLR9 activity, reporter signal” value (compound 30 nM (as headed)) stood at 0.2475. Further, the “human TLR9 activity, reporter signal” value (compound 100 nM (as headed)) was determined as 0.2357.

With `CCOc1nc(N)c2nc(-c3cncc(F)c3)n(Cc3ccc(CN4C[C@@H]5C[C@H]4CN5C)cc3)c2n1` [Cpd-6], the “human TLR9 activity, reporter signal” value is, setting by setting: (compound 0.0001 nM (as headed)) 0.3816; (compound 0.001 nM (as headed)) 0.371; (compound 0.003 nM (as headed)) 0.3771; (compound 0.01 nM (as headed)) 0.3689; (compound 0.03 nM (as headed)) 0.3826; (compound 0.1 nM (as headed)) 0.3836. Besides, the “human TLR9 activity, reporter signal” value came to 0.372 (compound 0.3 nM (as headed)); 0.3752 (compound 1 nM (as headed)); 0.3176 (compound 3 nM (as headed)); 0.265 (compound 10 nM (as headed)); 0.06893 (compound 30 nM (as headed)); 0.01837 (compound 100 nM (as headed)).

Turning to `CCOc1nc(C)c2nc(-c3cncc(F)c3)n(Cc3ccc(CN4C[C@@H]5C[C@H]4CN5C)cc3)c2n1` [Cpd-7], the “human TLR9 activity, reporter signal” value runs as follows: (compound 0.0001 nM (as headed)) 0.3816; (compound 0.001 nM (as headed)) 0.3944; (compound 0.003 nM (as headed)) 0.4214; (compound 0.01 nM (as headed)) 0.4209; (compound 0.03 nM (as headed)) 0.4048; (compound 0.1 nM (as headed)) 0.3963. The “human TLR9 activity, reporter signal” value reads like this: (compound 0.3 nM (as headed)) 0.3799; (compound 1 nM (as headed)) 0.3655; (compound 3 nM (as headed)) 0.3183; (compound 10 nM (as headed)) 0.2034; (compound 30 nM (as headed)) 0.05003; (compound 100 nM (as headed)) -0.002975.

Consider `CCN(CCO)CCCC(C)Nc1ccnc2cc(Cl)ccc12` (centres unmarked) [HCQ, hydroxychloroquine, reference compound], for which the “human TLR9 activity, reporter signal” value by setting is: (compound 0.0001 nM (as headed)) 0.3549; (compound 0.01 nM (as headed)) 0.3663; (compound 0.03 nM (as headed)) 0.3271; (compound 0.1 nM (as headed)) 0.2912; (compound 0.3 nM (as headed)) 0.1984; (compound 1 nM (as headed)) 0.0758. Further, the “human TLR9 activity, reporter signal” value by setting is: (compound 3 nM (as headed)) 0.0184; (compound 10 nM (as headed)) -0.013; (compound 30 nM (as headed)) -0.01145; (compound 100 nM (as headed)) -0.00085.
